In BigSolDB 2.1:

NCCCCCC(=O)O
solubility (mole fraction)
Details | 283.15 K | 288.15 K | 293.15 K | 298.15 K | 303.15 K | 308.15 K | 313.15 K | 318.15 K | 323.15 K
in ethyl acetate | 0.000146 | 0.00016 | 0.000174 | 0.000188 | 0.0002 | 0.000221 | 0.000241 | 0.000262 | 0.000289
in isopropanol | 7.7e-05 | 8.1e-05 | 9.2e-05 | 0.000108 | 0.000123 | 0.000142 | 0.000162 | 0.000181 | 0.0002
in methyl acetate | 0.000119 | 0.000129 | 0.00014 | 0.000146 | 0.000154 | 0.000161 | 0.000166 | 0.00017 | 0.000172
in water | 0.118 | 0.126 | 0.13 | 0.137 | 0.145 | 0.152 | 0.155 | 0.16 | 0.167
